Laboratory results taken from PubChem BioAssay AID1919017 (Molecular Pharmacology Branch, DTP, NCI, 2023).

System: SW1271 complex spheroids with HUVEC/MSC, growth, % test/control
Experiment: Anticancer human tumor SW1271 cell line growth inhibition [AhR];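 note: spheroids exposed to agents for 7 days before readout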
Conditions: for IC50: curve of first compound; for viability, T/C: stronger effect = lower value
Method in brief: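 Complex tumor spheroids co-cultured with HUVEC and human MSC stroma; AhR antagonists tested in combination with standard-of-care and investigational agents. Top concentration at or near clinical Cmax (else 10 microM), half-log dilutions; growth expressed as percent test/control.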

[1] = second compound 0.1 µM, first compound 0.0316 µM
[2] = second compound 0.1 µM, first compound 0.1 µM
[3] = second compound 0.316 µM, first compound 0.0316 µM
[4] = second compound 0.316 µM, first compound 0.1 µM
[5] = second compound 1 µM, first compound 0.0316 µM
[6] = second compound 1 µM, first compound 0.1 µM
[7] = second compound 3.16 µM, first compound 0.0316 µM
[8] = second compound 3.16 µM, first compound 0.1 µM
[9] = second compound 10 µM, first compound 0.0316 µM
[10] = second compound 10 µM, first compound 0.1 µM

Cn1ncnc1C1c2n[nH]c(=O)c3cc(F)cc(c23)NC1c1ccc(F)cc1 (stereo not given) + Cc1ccccc1N=Nc1ccc(NC(=O)c2ccnn2C)c(C)c1 was tested, and the IC50 (second compound 0.1 µM) was over 0.1 µM, the IC50 (second compound 0.316 µM) was over 0.1 µM and the IC50 (second compound 1 µM) was over 0.1 µM. The IC50 (second compound 3.16 µM) was over 0.1 µM, the IC50 (second compound 10 µM) was over 0.1 µM and the viability, T/C (second compound 0.1 µM, first compound 0.000316 µM) was 118%. The viability, T/C (second compound 0.1 µM, first compound 0.001 µM) was 120%, the viability, T/C (second compound 0.1 µM, first compound 0.00316 µM) was 133% and the viability, T/C (second compound 0.1 µM, first compound 0.01 µM) was 109%. The viability, T/C [1] was 117%, the viability, T/C [2] was 116% and the viability, T/C (second compound 0.316 µM, first compound 0.000316 µM) was 124%. For the same compound, the viability, T/C (second compound 0.316 µM, first compound 0.001 µM) was 127%, the viability, T/C (second compound 0.316 µM, first compound 0.00316 µM) was 109% and the viability, T/C (second compound 0.316 µM, first compound 0.01 µM) was 118%. The viability, T/C [3] was 121%, the viability, T/C [4] was 108% and the viability, T/C (second compound 1 µM, first compound 0.000316 µM) was 105%. It also gave a viability, T/C (second compound 1 µM, first compound 0.001 µM) of 93.8%, a viability, T/C (second compound 1 µM, first compound 0.00316 µM) of 117% and a viability, T/C (second compound 1 µM, first compound 0.01 µM) of 117%. For the same compound, the viability, T/C [5] was 99.3%, the viability, T/C [6] was 114% and the viability, T/C (second compound 3.16 µM, first compound 0.000316 µM) was 96.1%. It also gave a viability, T/C (second compound 3.16 µM, first compound 0.001 µM) of 127%, a viability, T/C (second compound 3.16 µM, first compound 0.00316 µM) of 124% and a viability, T/C (second compound 3.16 µM, first compound 0.01 µM) of 122%. The viability, T/C [7] was 97.5%, the viability, T/C [8] was 131% and the viability, T/C (second compound 10 µM, first compound 0.000316 µM) was 118%. For the same compound, the viability, T/C (second compound 10 µM, first compound 0.001 µM) was 124%, the viability, T/C (second compound 10 µM, first compound 0.00316 µM) was 110% and the viability, T/C (second compound 10 µM, first compound 0.01 µM) was 94.5%. The viability, T/C [9] was 90.5% and the viability, T/C [10] was 82.9%.

CC(C)c1c(-c2ccccc2)nc2c(C#N)c[nH]n2c1=O + Cc1ccccc1N=Nc1ccc(NC(=O)c2ccnn2C)c(C)c1 showed an IC50 (second compound 0.1 µM) of over 10 µM, an IC50 (second compound 0.316 µM) of over 10 µM and an IC50 (second compound 1 µM) of over 10 µM. It also gave an IC50 (second compound 3.16 µM) of over 10 µM, an IC50 (second compound 10 µM) of over 10 µM and a viability, T/C [1] of 99.6%. For the same compound, the viability, T/C [2] was 85.9%, the viability, T/C (second compound 0.1 µM, first compound 0.316 µM) was 94.9% and the viability, T/C (second compound 0.1 µM, first compound 1 µM) was 78%. The viability, T/C (second compound 0.1 µM, first compound 3.16 µM) was 102%, the viability, T/C (second compound 0.1 µM, first compound 10 µM) was 102% and the viability, T/C [3] was 102%. The viability, T/C [4] was 110%, the viability, T/C (second compound 0.316 µM, first compound 0.316 µM) was 112% and the viability, T/C (second compound 0.316 µM, first compound 1 µM) was 107%. The viability, T/C (second compound 0.316 µM, first compound 3.16 µM) was 85.3%, the viability, T/C (second compound 0.316 µM, first compound 10 µM) was 77.3% and the viability, T/C [5] was 90.5%. The viability, T/C [6] was 97.6%, the viability, T/C (second compound 1 µM, first compound 0.316 µM) was 91% and the viability, T/C (second compound 1 µM, first compound 1 µM) was 113%. The viability, T/C (second compound 1 µM, first compound 3.16 µM) was 107%, the viability, T/C (second compound 1 µM, first compound 10 µM) was 94.4% and the viability, T/C [7] was 93.3%. It also gave a viability, T/C [8] of 88.3%, a viability, T/C (second compound 3.16 µM, first compound 0.316 µM) of 130% and a viability, T/C (second compound 3.16 µM, first compound 1 µM) of 109%. It also gave a viability, T/C (second compound 3.16 µM, first compound 3.16 µM) of 119%, a viability, T/C (second compound 3.16 µM, first compound 10 µM) of 101% and a viability, T/C [9] of 76.5%. It also gave a viability, T/C [10] of 88.5%, a viability, T/C (second compound 10 µM, first compound 0.316 µM) of 108% and a viability, T/C (second compound 10 µM, first compound 1 µM) of 113%. The viability, T/C (second compound 10 µM, first compound 3.16 µM) was 88.2% and the viability, T/C (second compound 10 µM, first compound 10 µM) was 87.6%.

In the case of CC(C)CC(NC(=O)C(Cc1ccccc1)NC(=O)c1cnccn1)B(O)O (stereo not given) + Cc1ccccc1N=Nc1ccc(NC(=O)c2ccnn2C)c(C)c1, the IC50 (second compound 0.1 µM) is reported as 0.00548 µM, the IC50 (second compound 0.316 µM) is reported as 0.0054 µM and the IC50 (second compound 1 µM) is reported as 0.00573 µM. It also gave an IC50 (second compound 3.16 µM) of 0.00573 µM, an IC50 (second compound 10 µM) of 0.00676 µM and a viability, T/C (second compound 0.1 µM, first compound 0.000949 µM) of 105%. The viability, T/C (second compound 0.1 µM, first compound 0.003 µM) was 97%, the viability, T/C (second compound 0.1 µM, first compound 0.00949 µM) was 7.2% and the viability, T/C (second compound 0.1 µM, first compound 0.03 µM) was 1.26%. It also gave a viability, T/C (second compound 0.1 µM, first compound 0.0949 µM) of 0.41%, a viability, T/C (second compound 0.1 µM, first compound 0.3 µM) of 0.31% and a viability, T/C (second compound 0.316 µM, first compound 0.000949 µM) of 91.4%. It also gave a viability, T/C (second compound 0.316 µM, first compound 0.003 µM) of 90.3%, a viability, T/C (second compound 0.316 µM, first compound 0.00949 µM) of 11.3% and a viability, T/C (second compound 0.316 µM, first compound 0.03 µM) of 0.73%. It also gave a viability, T/C (second compound 0.316 µM, first compound 0.0949 µM) of 11.2%, a viability, T/C (second compound 0.316 µM, first compound 0.3 µM) of 6.11% and a viability, T/C (second compound 1 µM, first compound 0.000949 µM) of 123%. For the same compound, the viability, T/C (second compound 1 µM, first compound 0.003 µM) was 101%, the viability, T/C (second compound 1 µM, first compound 0.00949 µM) was 10.2% and the viability, T/C (second compound 1 µM, first compound 0.03 µM) was 1.95%. For the same compound, the viability, T/C (second compound 1 µM, first compound 0.0949 µM) was 1.1%, the viability, T/C (second compound 1 µM, first compound 0.3 µM) was 0.56% and the viability, T/C (second compound 3.16 µM, first compound 0.000949 µM) was 92.9%. For the same compound, the viability, T/C (second compound 3.16 µM, first compound 0.003 µM) was 89.4%, the viability, T/C (second compound 3.16 µM, first compound 0.00949 µM) was 19.4% and the viability, T/C (second compound 3.16 µM, first compound 0.03 µM) was 1.27%. For the same compound, the viability, T/C (second compound 3.16 µM, first compound 0.0949 µM) was 0.6%, the viability, T/C (second compound 3.16 µM, first compound 0.3 µM) was 0.68% and the viability, T/C (second compound 10 µM, first compound 0.000949 µM) was 93.1%. For the same compound, the viability, T/C (second compound 10 µM, first compound 0.003 µM) was 99.5%, the viability, T/C (second compound 10 µM, first compound 0.00949 µM) was 30.8% and the viability, T/C (second compound 10 µM, first compound 0.03 µM) was 2.17%. The viability, T/C (second compound 10 µM, first compound 0.0949 µM) was 0.87% and the viability, T/C (second compound 10 µM, first compound 0.3 µM) was 0.59%.
